The nature of assay [1]: Behavioral despair (forced swimming) test for antidepressants, albino Swiss ND/4 mice. Particulars: for Duration of Immobility: albino Swiss ND/4 mice, 30 mg/kg; for change in time of immobility (in words): albino Swiss mice, noon or midnight. It is filed as in vivo, mouse (male albino Swiss ND/4). From the text: (§1) Methods: Typical and atypical antidepressants reduce the time during which mice are immobile in a forced swimming test. [Porsolt et al., Arch. Int. Pharmacodun. Ther. 229:327-336 (1977)]. This test, known as the behavioral despair test, appears to be a good predictor of clinical antidepressant activity.
(§2) Male albino Swiss ND/4 mice and C3H/HeN mice (4 to 5 weeks old) were purchased from Harlam Sprague Dawley (Indianapolis, Ind.). […] The animals were kept in the same facilities at least two weeks before the experiment to allow them to adapt to a 14/10 hour light/dark cycle (lights on at 4 a.m./off at 6 p.m.).
(§3) Mice were housed in groups of 10 in polycarbonate plastic cages 137/8×85/8×51/8 inches with 88 square inches of floor space) with free access to feed (Agway 3000 rat, mouse and hamster feed) and water. During the light period, light intensity at the level of the cages was about 250 lux. The room temperature was kept constant at 22±1° C. The present series of experiments were conducted between October, 1986 and January, 1987.
(§4) The day of the experiment, mice were weighed, marked on the tail and placed in cages (8 mice per cage) as described above. Animals were transferred to the laboratory where the swim test was to be conducted at 10:00 a.m. for noon experiments and at 5:00 p.m. for evening experiments. For noon experiments, the swim test was started at 12:00 h and for midnight experiments, the swim test was started at 24:00 h. Two mice obtained from different experimental groups were tested simultaneously.
(§5) Apparatus: The apparatus consisted of two glass beakers (height: 13 cm; diameter: 11.5 cm), each placed inside a bigger glass beaker (height: 20 cm; diameter: 12.4 cm) containing 6 cm of water at 23±1° C. A non-transparent panel placed between the two cylinders prevented the mice from seeing each other. At midnight, experiments were conducted under red dim light (Kodak, filter A) provided by two photographic safety lights located at each side of the beakers.
(§6) Drugs: Mice were injected with vehicle or drugs dissolved in vehicle dissolved at the appropriate concentrations. Each mouse received 0.1 ml of liquid/10 g body weight. Drugs were dissolved immediately before the experiment. Desipramine was obtained from Sigma (St. Louis, Mo.) and dissolved in water. […] Bright light was administered with a fluorescent lamp placed one foot above the mice.
(§7) Methods The swim test was conducted as described by Porsolt et al. [Arch. Int. Pharmacodyn. 229:327-336 (1977)]. Forced swim in a narrow cylinder induced a depressed state characterized by an immobile posture, which is readily identifiable. A mouse is considered to be immobile when it ceases struggling and remains floating motionless in the water, making only those movements necessary to keep its head above water. […] Two mice that had received different treatments were observed simultaneously. Mice were dropped into the cylinders and left in the water for 6 minutes. The time of immobility was recorded during the last 4 minutes of swimming.

The nature of assay [2]: Behavioral despair (forced swimming) test for antidepressants, C3H/HeN mice. The assay is classed as in vivo, mouse (C3H/HeN).
From the text: as §1, §2, §3, §4, §5, §6, §7

The target of assay [3] is T1, melatonin receptor (Oryctolagus cuniculus, UniProt G1SUP2).
T1 sequence (G1SUP2 1-362): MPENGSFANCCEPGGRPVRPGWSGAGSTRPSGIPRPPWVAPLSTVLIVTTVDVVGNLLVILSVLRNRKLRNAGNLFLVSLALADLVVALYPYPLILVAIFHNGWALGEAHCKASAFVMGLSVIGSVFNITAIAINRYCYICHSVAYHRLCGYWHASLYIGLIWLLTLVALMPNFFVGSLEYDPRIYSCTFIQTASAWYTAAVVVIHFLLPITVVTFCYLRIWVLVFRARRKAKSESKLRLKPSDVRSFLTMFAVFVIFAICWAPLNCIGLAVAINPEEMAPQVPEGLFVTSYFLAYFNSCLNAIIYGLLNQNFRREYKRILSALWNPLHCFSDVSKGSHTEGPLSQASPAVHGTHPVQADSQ
In words: Melatonin receptor assay: calcium-dependent/stimulation-evoked release of 3H-dopamine from rabbit retina (Dubocovich assay). The assay is classed as biochemical. Particulars: for effect on melatonin concentration-response curves / melatonin-induced inhibition of calcium-dependent 3H-DA release: compound present during S1 and S2, 0.1, 1 or 10 μM, FIGS. 3a, 3b. The procedure: Briefly, dopamine release was elicited in vitro by electrical field stimulation (3 Hz, 1 min. 20 mA, […].) of rabbit retinal pieces which had been prelabeled with ^3 H-dopamine. Release was determined as the percentage of total tissue radioactivity that was released during stimulation(s) minus the spontaneous release level determined before and after stimulation. Two periods of stimulation (S1 and S2) were applied 40 minutes apart in each experiment. Results are expressed as the ratio of release in S2 to release in S1 (FIG. 1.).
Drugs are added 20 minutes before the second stimulation to test their effect on the spontaneous and stimulation evoked release of ^3 H-dopamine.
First, the compounds (antagonists) were tested alone to determine their effect on spontaneous and stimulated release of dopamine (FIG. 2a.).
The compound of Example A was present during both S1 and S2 at a concentration of 0.1 μM, 1 μM, or 10 μM. Control is .largecircle..

For assay [4], the target named is T1, melatonin receptor. Particulars: in vitro, Dubocovich literature; cited from earlier work.
Assay [5] deals with melatonin receptor. The note with it: rabbit or chicken retina, Dubocovich 1985; cited from earlier work.
[6] abbreviates: C3H/HeN mice, 3.00 mg/kg, midnight, control 67.7 ± 2.15.
[7] abbreviates: C3H/HeN mice, 3.00 mg/kg, noon, control 47.7 ± 3.4.
Where [8] appears, read: C3H/HeN mice, 10.00 mg/kg, midnight, control 67.7 ± 2.15.
Where [9] appears, read: C3H/HeN mice, 10.00 mg/kg, noon, control 47.7 ± 3.4.
[10] abbreviates: C3H/HeN mice, .03 mg/kg, midnight, control 67.7 ± 2.15.
Setting [11] is: C3H/HeN mice, .03 mg/kg, noon, control 47.7 ± 3.4.
The mark [12] stands for this setting: C3H/HeN mice, noon and midnight.

The structures appear in SMILES notation. Entries after “also recorded” stand apart in the source; their conditions may differ.

As for `CNCCCN1c2ccccc2CCc2ccccc21` [Desipramine], the “Duration of Immobility” value came to 46.0 ± 1.3 s in assay [1] (midnight, control 84.3 ± 11.2); 38.2 ± 5.1 s in assay [1] (noon, control 72.4 ± 4.9); 16.1 ± 6.0 s in assay [2] (setting [6]); 20.7 ± 3.7 s in assay [2] (setting [7]); 13.2 ± 7.2 s in assay [2] (setting [8]); 20.7 ± 2.0 s in assay [2] (setting [9]). Also, the figures for the “Duration of Immobility” value in assay [2] (setting [10]) and in assay [2] (setting [11]) were 33.2 ± 7.3 s and 46.2 ± 12.9 s, respectively. The “change in time of immobility (in words)” value in assay [1] was “same decrease in time of immobility in the behavioral despair test at noon and at midnight”; in assay [2] (setting [12]), “more potent to reduce the time of immobility at midnight than at noon”.

As for `CC(=O)NCCc1c(Cc2ccccc2)[nH]c2ccccc12` [Example N-0774, 2-benzyl-N-acetyl tryptamine], the “estimated KB (affinity constant from the Schild plot)” value at melatonin receptor [3] (antagonist against melatonin, rabbit retina, antagonist 0.1, 1 or 10 μM in S1 and S2) is 20 µM. In addition, on melatonin receptor [3] (compound alone, 0.1-10 μM, FIG. 2a, listed as Example A), the “direct effect on spontaneous dopamine release (Sp2/Sp1)” value is listed as “little or no direct effects; also recorded: did not modify the control ratio Sp2 /Sp1”. In addition, the “direct effect on stimulated (calcium-dependent) dopamine release (S2/S1)” value on melatonin receptor [3] (compound alone, 0.1-10 μM, FIG. 2b, listed as Example A) is “little or no direct effects; also recorded: did not modify the control ratio”. The “effect on melatonin concentration-response curves / melatonin-induced inhibition of calcium-dependent 3H-DA release” value at melatonin receptor [3] (listed as Example A) is listed as “shifted in parallel to the right”; on melatonin receptor [3] (listed as Luzindole (N-0774)), “antagonization of melatonin-induced inhibition”. For the same compound, the “activity at melatonin receptors (conclusion)” value at melatonin receptor [3] (rabbit retina) is “potent, competitive antagonist at melatonin receptors”. Moreover, the “Duration of Immobility” value in assay [1] (midnight, control 84.3 ± 11.2) was 81.4 ± 3.9 s; in assay [1] (noon, control 72.4 ± 4.9), 57.4 ± 8.9 s; in assay [2] (setting [6]), 16.1 ± 5.2 s; in assay [2] (setting [7]) it was 37.4 ± 6.6 s; in assay [2] (setting [8]) it was 13.1 ± 3.6 s; in assay [2] (setting [9]), 52.1 ± 6.8 s. Besides, the “Duration of Immobility” value in assay [2] (setting [10]) turned out to be 47.7 ± 4.7 s; in assay [2] (setting [11]), 53.8 ± 8.8 s; in assay [2] (Table 4, 10 mg/kg, midnight, control 67.7 ± 2.15, strain not given), 16.1 ± 5.20 s. The “change in time of immobility (in words)” value in assay [1] is on record as “neither melatonin nor the melatonin receptor antagonist N-0074 modified the time of immobility”; in assay [2] (setting [12]), “reduces the time of immobility in a dose-dependent fashion, the effect being more pronounced at midnight than at noon”; in assay [2] (midnight, compared with bright light), “decreases the time of immobility”.

Turning to `COc1ccc2[nH]cc(CCNC(C)=O)c2c1` [Melatonin, 5-methoxy-N-acetyl tryptamine], the “change in time of immobility (in words)” value is reported as “neither melatonin nor the melatonin receptor antagonist N-0074 modified the time of immobility” in assay [1]; “did not change the time of immobility” in assay [2] (setting [12]); “increased the time of immobility” in assay [2] (C3H/HeN mice, noon, in-darkness administration). The “Duration of Immobility” value in assay [2] (C3H/HeN mice, 30 mg/kg, Noon (In-Darkness Administration), control 29.5 ± 3.34) came to 48.2 ± 5.02 s; in assay [2] (C3H/HeN mice, 30.00 mg/kg, midnight, control 67.7 ± 2.15), 57.9 ± 9.0 s; in assay [2] (C3H/HeN mice, 30.00 mg/kg, noon, control 47.7 ± 3.4), 45.9 ± 18.0 s. The “inhibition of calcium-dependent release of 3H dopamine from rabbit retina” value on melatonin receptor [4] is recorded as “inhibit dopamine release; also recorded: picomolar concentrations”.

In the case of `CC(=O)NCCc1c[nH]c2ccccc12` [N-acetyl tryptamine], the “melatonin receptor antagonist property” value in the assay on melatonin receptor [5] is “melatonin receptor antagonist”.

(Values after patent US5283343A, “2-aryl substituted N-acetyltryptamines and process of preparing such” (priority 1991, dated 1994).)
